Results as given in ChEMBL document CHEMBL2380232, “Triazole derivatives: a series of Darapladib analogues as orally active Lp-PLA2 inhibitors” (Bioorg Med Chem Lett, 2013).
Active and inactive are the calls of the source. No cut-off for these calls is given here.

Assays:
Oryctolagus cuniculus [1] = species: Oryctolagus cuniculus; conditions: Plasma, 100 nM
Description: Inhibition of Lp-PLA2 in rabbit plasma using [3H]PAF as substrate at 100 nM incubated for 5 mins prior to substrate addition measured after 10 mins by liquid scintillation counting analysis relative to control

Oryctolagus cuniculus [2] = species: Oryctolagus cuniculus; conditions: Plasma, 10 nM
Description: Inhibition of Lp-PLA2 in rabbit plasma using [3H]PAF as substrate at 10 nM incubated for 5 mins prior to substrate addition measured after 10 mins by liquid scintillation counting analysis relative to control

Mus musculus = species: Mus musculus; conditions: C57, 50 mg/kg
Description: In vivo inhibition of Lp-PLA2 in C57 mouse serum using 2-thio-PAF as substrate at 50 mg/kg, po measured over 24 hrs

| inhibition (Oryctolagus cuniculus [1]) | inhibition (Oryctolagus cuniculus [2]) | SMILES | inhibition (Mus musculus) |
| --- | --- | --- | --- |
| 95% | 74% | CCN(CC)CCCCc1nnc(Cn2c(SCc3ccc(F)cc3)nc(=O)c3c2CCC3)n1Cc1ccc(-c2ccc(C(F)(F)F)cc2)cc1 | inactive |
| – | 76% | CCN(CC)CCN(C)C(C)c1nnc(Cn2c(SCc3ccc(F)cc3)nc(=O)c3c2CCC3)n1Cc1ccc(-c2ccc(C(F)(F)F)cc2)cc1 (configuration not stated) | Active |
| – | 73% | CN(C)CCCN(C)Cc1nnc(Cn2c(SCc3ccc(F)cc3)nc(=O)c3c2CCC3)n1Cc1ccc(-c2ccc(C(F)(F)F)cc2)cc1 | – |
| – | 71% | CC(c1nnc(Cn2c(SCc3ccc(F)cc3)nc(=O)c3c2CCC3)n1Cc1ccc(-c2ccc(C(F)(F)F)cc2)cc1)N(C)CCCN(C)C (configuration not stated) | – |
| – | 71% | CC(c1nnc(Cn2c(SCc3ccc(F)cc3)nc(=O)c3c2CCC3)n1Cc1ccc(-c2ccc(C(F)(F)F)cc2)cc1)N(C)CCN(C)C (configuration not stated) | – |
| 95% | 33% | CCN(CC)CCN(Cc1nnc(Cn2c(SCc3ccc(F)cc3)nc(=O)c3c2CCC3)n1Cc1ccc(-c2ccc(C(F)(F)F)cc2)cc1)C(C)C | – |
| – | 72% | CCN(CC)CCN(C)Cc1nnc(Cn2c(SCc3ccc(F)cc3)nc(=O)c3c2CCC3)n1Cc1ccc(-c2ccc(C(F)(F)F)cc2)cc1 | Active |
| – | 77% | CN(C)CCN(C)Cc1nnc(Cn2c(SCc3ccc(F)cc3)nc(=O)c3c2CCC3)n1Cc1ccc(-c2ccc(C(F)(F)F)cc2)cc1 | – |
| – | 73% | CCN(CC)CCCc1nnc(Cn2c(SCc3ccc(F)cc3)nc(=O)c3c2CCC3)n1Cc1ccc(-c2ccc(C(F)(F)F)cc2)cc1 | inactive |
| – | 75% | CCN(CCN(C)C)Cc1nnc(Cn2c(SCc3ccc(F)cc3)nc(=O)c3c2CCC3)n1Cc1ccc(-c2ccc(C(F)(F)F)cc2)cc1 | – |
| – | 35% | CCN(CC)CCNCc1nnc(Cn2c(SCc3ccc(F)cc3)nc(=O)c3c2CCC3)n1Cc1ccc(-c2ccc(C(F)(F)F)cc2)cc1 | – |

Continued, molecule first:

| SMILES | inhibition (Oryctolagus cuniculus [1]) | inhibition (Oryctolagus cuniculus [2]) | inhibition (Mus musculus) |
| --- | --- | --- | --- |
| CN(CC(=O)O)Cc1nnc(Cn2c(SCc3ccc(F)cc3)nc(=O)c3c2CCC3)n1Cc1ccc(-c2ccc(C(F)(F)F)cc2)cc1 | 74% | 5% | – |
| CCN(CC)CCN(C)Cc1cnc(Cn2c(SCc3ccc(F)cc3)nc(=O)c3c2CCC3)n1Cc1ccc(-c2ccc(C(F)(F)F)cc2)cc1 | 89% | 54% | – |
| CN(CCN1CCCC1)Cc1nnc(Cn2c(SCc3ccc(F)cc3)nc(=O)c3c2CCC3)n1Cc1ccc(-c2ccc(C(F)(F)F)cc2)cc1 | 97% | 76% | – |
| CC(C)N(CCNCc1nnc(Cn2c(SCc3ccc(F)cc3)nc(=O)c3c2CCC3)n1Cc1ccc(-c2ccc(C(F)(F)F)cc2)cc1)C(C)C | – | 41% | – |
| O=c1nc(SCc2ccc(F)cc2)n(Cc2nnc(CCCN3CCCC3)n2Cc2ccc(-c3ccc(C(F)(F)F)cc3)cc2)c2c1CCC2 | 97% | 75% | – |
| O=c1nc(SCc2ccc(F)cc2)n(Cc2nnc(CNCCN3CCOCC3)n2Cc2ccc(-c3ccc(C(F)(F)F)cc3)cc2)c2c1CCC2 | – | 32% | – |
| O=c1nc(SCc2ccc(F)cc2)n(Cc2nnc(CNCCN3CCCC3)n2Cc2ccc(-c3ccc(C(F)(F)F)cc3)cc2)c2c1CCC2 | – | 55% | – |
| CN(C)[C@@H]1CCN(Cc2nnc(Cn3c(SCc4ccc(F)cc4)nc(=O)c4c3CCC4)n2Cc2ccc(-c3ccc(C(F)(F)F)cc3)cc2)C1 | – | 54% | – |
| O=c1nc(SCc2ccc(F)cc2)n(Cc2nnc(CNCCN3CCCCC3)n2Cc2ccc(-c3ccc(C(F)(F)F)cc3)cc2)c2c1CCC2 | – | 33% | – |
| CN(Cc1ccccn1)Cc1nnc(Cn2c(SCc3ccc(F)cc3)nc(=O)c3c2CCC3)n1Cc1ccc(-c2ccc(C(F)(F)F)cc2)cc1 | – | 36% | – |
| O=c1nc(SCc2ccc(F)cc2)n(Cc2nnc(CCCN3CCCCC3)n2Cc2ccc(-c3ccc(C(F)(F)F)cc3)cc2)c2c1CCC2 | 96% | 76% | – |
| COCCNCc1nnc(Cn2c(SCc3ccc(F)cc3)nc(=O)c3c2CCC3)n1Cc1ccc(-c2ccc(C(F)(F)F)cc2)cc1 | – | 13% | – |
| CN(C)[C@H]1CCN(Cc2nnc(Cn3c(SCc4ccc(F)cc4)nc(=O)c4c3CCC4)n2Cc2ccc(-c3ccc(C(F)(F)F)cc3)cc2)C1 | – | 46% | – |
| CCN(CC)CCN(Cc1ccc(-c2ccc(C(F)(F)F)cc2)cc1)C(=O)Cn1c(SCc2ccc(F)cc2)nc(=O)c2c1CCC2 | 99% | 82% | – |
| CN(CCN1CCCCC1)Cc1nnc(Cn2c(SCc3ccc(F)cc3)nc(=O)c3c2CCC3)n1Cc1ccc(-c2ccc(C(F)(F)F)cc2)cc1 | 97% | 75% | Active |
| CN(CCN1CCCCC1)Cc1cnc(Cn2c(SCc3ccc(F)cc3)nc(=O)c3c2CCC3)n1Cc1ccc(-c2ccc(C(F)(F)F)cc2)cc1 | 92% | 54% | – |
